Assay results: ChEMBL document CHEMBL3992500, “Design, facile synthesis and biological evaluations of novel pyrano[3,2-a]phenazine hybrid molecules as antitumor agents” (Eur J Med Chem, 2017)
Activity calls are given as the source filed them. The calls are words filed in the database; no cut-off is given here.

Columns and labels:
HCT-116 = experiment: Antiproliferative activity against human HCT116 cells after 48 hrs by MTT assay; type: functional, cell-based; conditions: HCT-116, 48 h
MCF7 = experiment: Antiproliferative activity against human MCF7 cells after 48 hrs by MTT assay; type: functional, cell-based; conditions: MCF7, 48 h
HepG2 = experiment: Antiproliferative activity against human HepG2 cells after 48 hrs by MTT assay; type: functional, cell-based; conditions: HepG2, 48 h
A549 = experiment: Antiproliferative activity against human A549 cells after 48 hrs by MTT assay; type: functional, cell-based; conditions: A549, 48 h
[1] = Antitumor activity against mouse H22-H8D8 cells implanted in ICR mouse assessed as tumor growth inhibition at 5 mg/kg, iv relative to control; type: functional; conditions: read-out: TGI
[2] = Antitumor activity against mouse H22-H8D8 cells implanted in ICR mouse assessed as tumor growth inhibition at 10 mg/kg, iv relative to control; type: functional; conditions: read-out: TGI
[3] = Antitumor activity against mouse H22-H8D8 cells implanted in ICR mouse assessed as tumor growth inhibition at 20 mg/kg, iv relative to control; type: functional; conditions: read-out: TGI
Mus musculus [4] = experiment: Toxicity in ICR mouse implanted with mouse H22-H8D8 cells assessed as body weight at 5 mg/kg, iv (reference value: 29.89 to 33.78 g); type: organism-based; conditions: in vivo
Mus musculus [5] = experiment: Toxicity in ICR mouse implanted with mouse H22-H8D8 cells assessed as body weight at 10 mg/kg, iv (reference value: 29.89 to 33.78 g); type: organism-based; conditions: in vivo
Mus musculus [6] = experiment: Toxicity in ICR mouse implanted with mouse H22-H8D8 cells assessed as body weight at 20 mg/kg, iv (reference value: 29.89 to 33.78 g); type: organism-based; conditions: in vivo
[7] = biological target: T1, DNA topoisomerase 1 (Homo sapiens) (UniProt P11387); experiment: Inhibition of DNA topoisomerase-1 (unknown origin) assessed as reduction in enzyme-catalyzed relaxation of pBR322 DNA substrate at 20 uM after 30 mins by ethidium bromide staining based electrophoresis
T1 sequence (whole entry): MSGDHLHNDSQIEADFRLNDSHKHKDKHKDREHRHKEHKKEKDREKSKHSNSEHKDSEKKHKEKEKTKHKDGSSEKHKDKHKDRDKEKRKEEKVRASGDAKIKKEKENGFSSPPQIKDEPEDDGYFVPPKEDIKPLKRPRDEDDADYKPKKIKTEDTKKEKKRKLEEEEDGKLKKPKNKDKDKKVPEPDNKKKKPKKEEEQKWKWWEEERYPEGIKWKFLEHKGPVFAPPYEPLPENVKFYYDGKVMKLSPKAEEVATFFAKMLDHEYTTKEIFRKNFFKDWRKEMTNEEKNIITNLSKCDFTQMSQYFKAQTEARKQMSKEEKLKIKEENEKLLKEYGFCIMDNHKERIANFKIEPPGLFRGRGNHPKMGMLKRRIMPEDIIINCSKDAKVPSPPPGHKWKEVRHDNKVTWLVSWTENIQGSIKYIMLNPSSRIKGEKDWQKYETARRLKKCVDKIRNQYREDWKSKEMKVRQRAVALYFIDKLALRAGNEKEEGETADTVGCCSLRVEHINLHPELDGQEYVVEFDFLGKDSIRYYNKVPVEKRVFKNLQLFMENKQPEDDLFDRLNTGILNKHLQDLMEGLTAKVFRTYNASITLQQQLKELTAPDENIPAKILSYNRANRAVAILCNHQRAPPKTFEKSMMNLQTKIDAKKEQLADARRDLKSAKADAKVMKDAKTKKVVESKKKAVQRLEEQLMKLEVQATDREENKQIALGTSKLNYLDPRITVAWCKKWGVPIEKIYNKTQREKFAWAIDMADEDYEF

[8] = biological target: DNA topoisomerase 2-alpha (Homo sapiens) (UniProt P11388); experiment: Inhibition of DNA topoisomerase-2alpha (unknown origin) assessed as reduction in enzyme-catalyzed relaxation of pBR322 DNA substrate at 20 uM after 30 mins by ethidium bromide staining based electrophoresis
Sequence of DNA topoisomerase 2-alpha (Homo sapiens) (P11388 whole entry): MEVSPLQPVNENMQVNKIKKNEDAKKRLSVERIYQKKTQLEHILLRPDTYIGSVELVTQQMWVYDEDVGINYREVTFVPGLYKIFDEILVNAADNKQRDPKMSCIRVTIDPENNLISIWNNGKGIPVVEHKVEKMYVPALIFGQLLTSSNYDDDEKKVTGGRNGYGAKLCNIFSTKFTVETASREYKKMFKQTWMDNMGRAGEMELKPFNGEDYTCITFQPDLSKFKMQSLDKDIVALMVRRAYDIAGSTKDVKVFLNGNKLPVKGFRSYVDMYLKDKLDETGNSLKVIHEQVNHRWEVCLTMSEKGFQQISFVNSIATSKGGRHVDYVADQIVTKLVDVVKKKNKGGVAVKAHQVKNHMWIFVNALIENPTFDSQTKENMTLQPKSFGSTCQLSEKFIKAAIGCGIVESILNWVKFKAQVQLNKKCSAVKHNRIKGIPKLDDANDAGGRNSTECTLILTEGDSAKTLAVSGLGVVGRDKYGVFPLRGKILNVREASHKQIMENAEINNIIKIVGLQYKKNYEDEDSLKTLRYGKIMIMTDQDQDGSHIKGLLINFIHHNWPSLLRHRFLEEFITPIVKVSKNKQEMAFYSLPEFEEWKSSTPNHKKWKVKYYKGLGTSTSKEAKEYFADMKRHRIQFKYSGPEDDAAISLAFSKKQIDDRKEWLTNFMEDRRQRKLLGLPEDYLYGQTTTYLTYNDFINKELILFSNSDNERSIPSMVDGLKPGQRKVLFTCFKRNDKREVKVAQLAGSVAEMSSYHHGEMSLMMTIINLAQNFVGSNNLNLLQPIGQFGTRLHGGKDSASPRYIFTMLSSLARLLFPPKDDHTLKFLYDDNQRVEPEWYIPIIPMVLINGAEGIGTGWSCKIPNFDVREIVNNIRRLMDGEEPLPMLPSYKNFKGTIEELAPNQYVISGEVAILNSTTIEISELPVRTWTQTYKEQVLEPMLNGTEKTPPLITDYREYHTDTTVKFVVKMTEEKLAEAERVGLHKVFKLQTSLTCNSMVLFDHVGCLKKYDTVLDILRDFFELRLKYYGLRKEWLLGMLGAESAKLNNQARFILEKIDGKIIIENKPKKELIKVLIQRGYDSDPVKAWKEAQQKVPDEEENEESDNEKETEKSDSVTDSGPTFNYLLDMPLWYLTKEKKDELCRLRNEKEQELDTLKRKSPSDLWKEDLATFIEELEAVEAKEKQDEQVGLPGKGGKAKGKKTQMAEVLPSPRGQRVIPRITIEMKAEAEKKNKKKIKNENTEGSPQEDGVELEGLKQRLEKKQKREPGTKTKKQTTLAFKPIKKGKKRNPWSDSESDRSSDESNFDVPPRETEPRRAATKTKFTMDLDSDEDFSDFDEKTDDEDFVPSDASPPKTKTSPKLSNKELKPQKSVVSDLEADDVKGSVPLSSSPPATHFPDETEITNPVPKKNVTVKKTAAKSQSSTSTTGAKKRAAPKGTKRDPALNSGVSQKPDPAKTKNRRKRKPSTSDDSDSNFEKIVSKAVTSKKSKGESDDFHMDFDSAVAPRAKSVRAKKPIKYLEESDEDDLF

SMILES | IC50 (HCT-116) | IC50 (MCF7) | IC50 (HepG2) | IC50 (A549) | inhibition in vivo at 5 mg/kg [1] | inhibition in vivo at 10 mg/kg [2] | inhibition in vivo at 20 mg/kg [3] | Activity (Mus musculus [4]) | Activity (Mus musculus [5]) | Activity (Mus musculus [6]) | inhibition [7] | inhibition [8]
CCOC(=O)C1=C(N)Oc2c(N)cc3nc4ccccc4nc3c2C1c1c(Cl)cccc1Cl (centres undefined) | 12.4 µM | > 50 µM | 40.1 µM | > 50 µM |  |  |  |  |  |  |  | 
CC(C)c1ccc(C2C(C#N)=C(N)Oc3c(N)cc4nc5ccccc5nc4c32)cc1 (centres undefined) | 20.6 µM | > 50 µM | 16.2 µM | 14.5 µM |  |  |  |  |  |  |  | 
N#CC1=C(N)Oc2c(N)cc3nc4ccccc4nc3c2C1c1ccccc1Cl (centres undefined) | 7.4 µM | 25.1 µM | 8.4 µM | 6.3 µM |  |  |  |  |  |  |  | 
COc1ccc(C2C(C#N)=C(N)Oc3c(N)cc4nc5ccccc5nc4c32)c(OC)c1OC (centres undefined) | 47.1 µM | 28.1 µM | 15.3 µM | 20.3 µM |  |  |  |  |  |  |  | 
N#CC1=C(N)Oc2c(N)cc3nc4ccccc4nc3c2C1c1cccc([N+](=O)[O-])c1 (centres undefined) | > 50 µM | 20.3 µM | > 50 µM | 26.6 µM |  |  |  |  |  |  |  | 
CCOC(=O)C1=C(N)Oc2c(N)cc3nc4ccccc4nc3c2C1c1ccc(Cl)cc1 (centres undefined) | 8.2 µM | 10 µM | 7.2 µM | 5.5 µM |  |  |  |  |  |  |  | 
COc1ccc(Br)cc1C1C(C#N)=C(N)Oc2c(N)cc3nc4ccccc4nc3c21 (centres undefined) | 30.1 µM | > 50 µM | 11.7 µM | 14.1 µM |  |  |  |  |  |  |  | 
CCOC(=O)C1=C(N)Oc2c(N)cc3nc4ccccc4nc3c2C1c1cc(OC)c(Br)c(OC)c1 (centres undefined) | 20.1 µM | > 50 µM | 10.1 µM | 13.5 µM |  |  |  |  |  |  |  | 
CCOC(=O)C1=C(N)Oc2c(N)cc3nc4ccccc4nc3c2C1c1cc(Br)ccc1OC (centres undefined) | > 50 µM | > 50 µM | 13.9 µM | > 50 µM |  |  |  |  |  |  |  | 
CCOC(=O)C1=C(N)Oc2c(N)cc3nc4ccccc4nc3c2C1c1cccc([N+](=O)[O-])c1 (centres undefined) | > 50 µM | 20.2 µM | 7.3 µM | > 50 µM |  |  |  |  |  |  |  | 
CCOC(=O)C1=C(N)Oc2c(N)cc3nc4ccccc4nc3c2C1c1ccccc1F (centres undefined) | 35.6 µM | 18.7 µM | 6.3 µM | 24.5 µM |  |  |  |  |  |  |  | 
CCOC(=O)C1=C(N)Oc2c(N)cc3nc4ccccc4nc3c2C1c1ccc(CC)cc1 (centres undefined) | 15.1 µM | > 50 µM | 30.4 µM | 39.1 µM |  |  |  |  |  |  |  | 
CCOC(=O)C1=C(N)Oc2c(N)cc3nc4ccccc4nc3c2C1c1cccc(Cl)c1Cl (centres undefined) | 7.8 µM | > 50 µM | 4.48 µM | 7.24 µM | 27% | 4.5% | 26.1% | 37.78 g | 39.22 g | 40.33 g | Active | Active
CCc1ccc(C2C(C#N)=C(N)Oc3c(N)cc4nc5ccccc5nc4c32)cc1 (centres undefined) | 5.5 µM | 19.1 µM | 15.5 µM | 23.4 µM |  |  |  |  |  |  |  | 
CCOC(=O)C1=C(N)Oc2c(N)cc3nc4ccccc4nc3c2C1c1ccccc1[N+](=O)[O-] (centres undefined) | 18.2 µM | 18.6 µM | 7.4 µM | 14.5 µM |  |  |  |  |  |  |  | 
COc1ccc(C2C(C#N)=C(N)Oc3c(N)cc4nc5ccccc5nc4c32)cc1F (centres undefined) | 20.4 µM | > 50 µM | 7.8 µM | 11.3 µM |  |  |  |  |  |  |  | 
CCOC(=O)C1=C(N)Oc2c(N)cc3nc4ccccc4nc3c2C1c1ccccc1Br (centres undefined) | 30.2 µM | 28.4 µM | 5 µM | 6.32 µM | 38.9% | 28.9% | 45.6% | 35.78 g | 37.44 g | 35.56 g | Active | Active
CC[C@@]1(O)C(=O)OCc2c1cc1n(c2=O)Cc2cc3cc(O)ccc3nc2-1 [HYDROXYCAMPTOTHECIN] | 3.5 µM | 2.4 µM | 10.1 µM | 0.8 µM |  |  |  |  |  |  | Active | 
